SMILES strings stand for the structures.

For orientation: EC50 means the concentration that produces a half-maximal response.

For this assay, the target named is T1, human iGluR4 (Homo sapiens, UniProt P48058).
T1 construct: expressed in transfected cells; host or cells: HEK293
T1 sequence (P48058 21-902): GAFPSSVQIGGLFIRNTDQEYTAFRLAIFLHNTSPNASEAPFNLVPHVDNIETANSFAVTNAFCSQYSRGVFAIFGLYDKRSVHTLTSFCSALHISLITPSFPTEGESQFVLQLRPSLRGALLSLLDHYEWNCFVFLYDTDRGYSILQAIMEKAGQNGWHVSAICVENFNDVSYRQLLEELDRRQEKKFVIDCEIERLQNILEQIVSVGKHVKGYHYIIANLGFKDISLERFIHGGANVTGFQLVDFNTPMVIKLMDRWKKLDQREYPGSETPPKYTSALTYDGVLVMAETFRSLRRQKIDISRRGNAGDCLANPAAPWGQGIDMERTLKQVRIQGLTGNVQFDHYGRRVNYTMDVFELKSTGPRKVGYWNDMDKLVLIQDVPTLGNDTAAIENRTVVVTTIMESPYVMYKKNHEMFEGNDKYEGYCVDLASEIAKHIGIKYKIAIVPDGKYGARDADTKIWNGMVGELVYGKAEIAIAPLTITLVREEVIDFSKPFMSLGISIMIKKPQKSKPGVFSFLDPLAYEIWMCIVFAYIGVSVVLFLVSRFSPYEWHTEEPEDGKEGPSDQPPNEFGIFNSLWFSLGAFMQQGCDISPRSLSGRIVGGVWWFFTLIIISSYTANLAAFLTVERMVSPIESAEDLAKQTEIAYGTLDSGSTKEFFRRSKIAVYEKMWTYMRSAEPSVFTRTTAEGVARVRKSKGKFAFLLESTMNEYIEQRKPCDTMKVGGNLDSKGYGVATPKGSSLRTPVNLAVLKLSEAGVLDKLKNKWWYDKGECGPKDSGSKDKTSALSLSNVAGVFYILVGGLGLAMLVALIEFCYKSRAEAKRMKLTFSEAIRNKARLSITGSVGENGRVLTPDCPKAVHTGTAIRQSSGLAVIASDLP
In words: Whole-cell voltage clamp potentiation of glutamate-evoked current in HEK293 cells stably expressing human iGluR4. As to conditions: whole-cell voltage clamp at −60 mV, potentiation of current evoked by 1 mM glutamate, Hill equation fit. It is filed as cell-based. The source says:
HEK293 cells stably expressing human iGluR4(obtained as described in European Patent Application Publication No. EP-A1-0583917) are used in the electrophysiological characterization of AMPA receptor potentiators. The extracellular recording solution contains (in mM): 140 NaCl, 5 KCl, 10 HEPES, 1 MgCl2, 2 CaCl2, 10 glucose, pH=7.4 with NaOH, 295 mOsm kg−1. The intracellular recording solution contains (in mM): 140 CsCl, 1 MgCl2, 10 HEPES, (N-[2-hydroxyethyl]piperazine-N1-[2-ethanesulfonic acid]) 10 EGTA (ethylene-bis(oxyethylene-nitrilo)tetraacetic acid), pH=7.2 with CsOH, 295 mOsm kg−1. With these solutions, recording pipettes have a resistance of 2-3 MΩ. Using the whole-cell voltage clamp technique (Hamill et al. (1981) Pflügers Arch., 391: 85-100), cells are voltage-clamped at −60 mV and control current responses to 1 mM glutamate are evoked. Responses to 1 mM glutamate are then determined in the presence of test compound. Compounds are deemed active in this test if, at a test concentration of 10 μM or less, they produce a greater than 10% increase in the value of the current evoked by 1 mM glutamate.
In order to determine the potency of test compounds, the concentration of the test compound, both in the bathing solution and co-applied with glutamate, is increased in half log units until the maximum effect was seen. Data collected in this manner are fit to the Hill equation, yielding an EC50 value, indicative of the potency of the test compound. Reversibility of test compound activity is determined by assessing control glutamate 1 mM responses. Once the control responses to the glutamate challenge are re-established, the potentiation of these responses by 100 μM cyclothiazide is determined by its inclusion in both the bathing solution and the glutamate-containing solution. In this manner, the efficacy of the test compound relative to that of cyclothiazide can be determined.
As for `CC(C)S(=O)(=O)Nc1ccsc1-c1ccc(-c2ccc(C(=O)O)cc2C#N)cc1` [Example 72, 2-Cyano-4′-[3-(propane-2-sulfonylamino)-thiophen-2-yl]-biphenyl-4-carboxylic acid], the EC50 amounted to 188 nM. Under `CC(C)S(=O)(=O)Nc1ccsc1-c1ccc(-c2cc(F)c(O)c(F)c2)cc1` [Example 11, Propane-2-sulfonic acid [2-(3′,5′-difluoro-4′-hydroxy-biphenyl-4-yl)-thiophen-3-yl]-amide] stands 720 nM; under `CC(C)S(=O)(=O)Nc1cnccc1-c1ccc(-c2ccc(C(=O)O)cc2C#N)cc1` [Example 51, 2-Cyano-4′-[3-(propane-2-sulfonylamino)-pyridin-4-yl]-biphenyl-4-carboxylic acid], 2460 nM. Turning to `COc1cc(C(=O)O)ccc1-c1ccc(-c2ccccc2NS(=O)(=O)C(C)C)cc1` [Example 46, 2″-Methoxy-2-(propane-2-sulfonylamino)-[1,1′;4′,1″]terphenyl-4″-carboxylic acid], the EC50 is 977 nM. Under `CC(C)S(=O)(=O)Nc1ccsc1-c1ccc(-c2cc(F)c(O)c(F)c2C#N)cc1` [Example 56, Propane-2-sulfonic acid [2-(2′-cyano-3′,5′-difluoro-4′-hydroxy-biphenyl-4-yl)-thiophen-3-yl]-amide] stands 151 nM.

Values taken from patent US7393868B2, “AMPA receptor potentiators” (Eli Lilly and Company, priority 2005, dated 2008).
